Test results from article PMC10746543, “Design principles for cyclin K molecular glue degraders” (Nature Chemical Biology, 2023).
Values joined by “and” are separate entries in the source; they are usually repeats but may differ in a detail not shown here. Equal entries are not always repeated. Where two headings read alike, the source gives them in different places.

What was measured:
HEK293T cells = experiment: Drug sensitivity assay (CellTiter-Glo viability) with or without MLN4924 pretreatment; assay type: cell-based, human; details: Supplementary Table 2
Outline: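 Viability of HEK293T–Cas9 cells was compared after 3-day drug treatment with or without 100 nM MLN4924 pretreatment (2 h, versus DMSO). Values are CellTiter-Glo signals relative to DMSO controls.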

CDK9–cyclin T = biological target: T1, CDK9–cyclin T (Homo sapiens, UniProt P50750); experiment: Lanthascreen kinase binding assay, CDK9; details: for Lanthascreen TR-FRET signal (raw ratio), sheet CDK9: duplicates
T1 construct: purchased Thermo Fisher
T1 sequence (P50750 whole entry): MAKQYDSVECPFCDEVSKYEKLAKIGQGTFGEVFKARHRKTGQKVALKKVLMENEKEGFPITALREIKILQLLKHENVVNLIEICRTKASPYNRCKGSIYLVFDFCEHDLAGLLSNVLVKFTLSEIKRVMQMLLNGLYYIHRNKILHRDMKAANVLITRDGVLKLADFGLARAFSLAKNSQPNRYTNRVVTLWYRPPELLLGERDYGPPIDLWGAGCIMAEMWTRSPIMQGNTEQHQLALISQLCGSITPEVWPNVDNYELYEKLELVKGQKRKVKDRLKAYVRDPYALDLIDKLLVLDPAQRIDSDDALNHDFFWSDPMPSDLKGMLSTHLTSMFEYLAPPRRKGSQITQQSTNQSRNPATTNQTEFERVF
T1 sequence (O60563 whole entry partner): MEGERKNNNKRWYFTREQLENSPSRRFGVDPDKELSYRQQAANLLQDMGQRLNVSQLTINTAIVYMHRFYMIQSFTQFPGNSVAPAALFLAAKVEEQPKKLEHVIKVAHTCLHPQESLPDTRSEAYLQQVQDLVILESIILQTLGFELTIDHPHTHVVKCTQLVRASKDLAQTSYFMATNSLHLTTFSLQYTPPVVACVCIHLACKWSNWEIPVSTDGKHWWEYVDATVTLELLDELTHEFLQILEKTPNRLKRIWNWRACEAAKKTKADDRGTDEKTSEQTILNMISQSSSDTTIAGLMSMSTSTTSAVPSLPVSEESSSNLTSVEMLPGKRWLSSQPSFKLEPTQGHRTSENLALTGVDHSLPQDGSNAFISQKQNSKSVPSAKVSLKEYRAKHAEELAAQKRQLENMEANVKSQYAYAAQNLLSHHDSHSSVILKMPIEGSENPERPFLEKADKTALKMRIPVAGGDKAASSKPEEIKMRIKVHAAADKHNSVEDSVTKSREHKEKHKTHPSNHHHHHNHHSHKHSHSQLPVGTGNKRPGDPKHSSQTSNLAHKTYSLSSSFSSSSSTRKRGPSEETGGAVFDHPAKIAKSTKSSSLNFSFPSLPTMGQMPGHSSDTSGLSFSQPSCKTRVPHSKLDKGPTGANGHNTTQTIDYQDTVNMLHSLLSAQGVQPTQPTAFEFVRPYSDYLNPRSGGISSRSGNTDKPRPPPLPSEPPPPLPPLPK
Description: (§1) Lanthascreen experiments were performed using commercially available reagents (Thermo Fisher) and according to the manufacturer’s instructions.

CDK2–cyclin A = biological target: T2, CDK2–cyclin A (Homo sapiens, UniProt P24941); experiment: Lanthascreen kinase binding assay, CDK2; details: for Lanthascreen signal, sheet CDK2: raw replicates
T2 construct: purchased Thermo Fisher
Description: as §1

With `Cc1ccc(C(=O)N2CSCC2C(=O)Nc2ncc(C)s2)o1` (stereo not drawn) [dCeMM4] the EC50 (HEK293T cells; Homo sapiens, HEK-293T, HEK293T viability, 72 h, compound alone, read-out: Cellular assays EC50) was 2630 nM, the Toxicity rescue (HEK293T cells; MLN4924-mediated cytotoxicity rescue, 10 µM used where n.d.) was 281% and the IC50 (CDK9–cyclin T; Supplementary Table 2, read-out: Lanthascreen IC50 [nM] CDK9) was 2460 nM. For the same compound, the “Lanthascreen TR-FRET signal (raw ratio), sheet CDK9” value (CDK9–cyclin T; compound 0.038147 nM, second titration set (r13)) was 0.01401 and 0.01443, the “Lanthascreen TR-FRET signal (raw ratio), sheet CDK9” value (CDK9–cyclin T; compound 0.152588 nM, second titration set (r13)) was 0.01297 and 0.01342 and the “Lanthascreen TR-FRET signal (raw ratio), sheet CDK9” value (CDK9–cyclin T; compound 0.610352 nM, second titration set (r13)) was 0.01434 and 0.01401. The “Lanthascreen TR-FRET signal (raw ratio), sheet CDK9” value (CDK9–cyclin T; compound 1.02544 nM, first titration set (r1)) was 0.01509 and 0.01456, the “Lanthascreen TR-FRET signal (raw ratio), sheet CDK9” value (CDK9–cyclin T; compound 3.15521 nM, first titration set (r1)) was 0.01409 and 0.01238 and the “Lanthascreen TR-FRET signal (raw ratio), sheet CDK9” value (CDK9–cyclin T; compound 9.46563 nM, first titration set (r1)) was 0.01419 and 0.01391. The “Lanthascreen TR-FRET signal (raw ratio), sheet CDK9” value (CDK9–cyclin T; compound 9.76563 nM, second titration set (r13)) was 0.01424 and 0.01466, the “Lanthascreen TR-FRET signal (raw ratio), sheet CDK9” value (CDK9–cyclin T; compound 31.5521 nM, first titration set (r1)) was 0.01363 and 0.01274 and the “Lanthascreen TR-FRET signal (raw ratio), sheet CDK9” value (CDK9–cyclin T; compound 39.0625 nM, second titration set (r13)) was 0.01378 and 0.01422. The “Lanthascreen TR-FRET signal (raw ratio), sheet CDK9” value (CDK9–cyclin T; compound 99.3891 nM, first titration set (r1)) was 0.01334 and 0.01404, the “Lanthascreen TR-FRET signal (raw ratio), sheet CDK9” value (CDK9–cyclin T; compound 156.25 nM, second titration set (r13)) was 0.01404 and 0.01353 and the “Lanthascreen TR-FRET signal (raw ratio), sheet CDK9” value (CDK9–cyclin T; compound 315.521 nM, first titration set (r1)) was 0.01521 and 0.01465. The “Lanthascreen TR-FRET signal (raw ratio), sheet CDK9” value (CDK9–cyclin T; compound 625 nM, second titration set (r13)) was 0.01264 and 0.01274, the “Lanthascreen TR-FRET signal (raw ratio), sheet CDK9” value (CDK9–cyclin T; compound 2500 nM, second titration set (r13)) was 0.01019 and 0.009296 and the “Lanthascreen TR-FRET signal (raw ratio), sheet CDK9” value (CDK9–cyclin T; compound 3155.21 nM, first titration set (r1)) was 0.008036 and 0.01025. The “Lanthascreen TR-FRET signal (raw ratio), sheet CDK9” value (CDK9–cyclin T; compound 10000 nM, second titration set (r13)) was 0.006352 and 0.006436, the “Lanthascreen TR-FRET signal (raw ratio), sheet CDK9” value (CDK9–cyclin T; compound 10002 nM, first titration set (r1)) was 0.007034 and 0.007071 and the “Lanthascreen signal, sheet CDK2” value (CDK2–cyclin A; Compound 0.038147 nM, experiment r13-r23) was 0.01291 and 0.01309. For the same compound, the “Lanthascreen signal, sheet CDK2” value (CDK2–cyclin A; Compound 0.038147 nM, experiment r48-r58) was 0.01261 and 0.01224, the “Lanthascreen signal, sheet CDK2” value (CDK2–cyclin A; Compound 0.152588 nM, experiment r13-r23) was 0.01309 and 0.01357 and the “Lanthascreen signal, sheet CDK2” value (CDK2–cyclin A; Compound 0.152588 nM, experiment r48-r58) was 0.01492 and 0.0157. The “Lanthascreen signal, sheet CDK2” value (CDK2–cyclin A; Compound 0.610352 nM, experiment r13-r23) was 0.01337 and 0.01331, the “Lanthascreen signal, sheet CDK2” value (CDK2–cyclin A; Compound 0.610352 nM, experiment r48-r58) was 0.01553 and 0.01443 and the “Lanthascreen signal, sheet CDK2” value (CDK2–cyclin A; Compound 1.02544 nM, experiment r1-r11) was 0.008871 and 0.008854. For the same compound, the “Lanthascreen signal, sheet CDK2” value (CDK2–cyclin A; Compound 3.15521 nM, experiment r1-r11) was 0.01028 and 0.01056, the “Lanthascreen signal, sheet CDK2” value (CDK2–cyclin A; Compound 9.46563 nM, experiment r1-r11) was 0.01086 and 0.009918 and the “Lanthascreen signal, sheet CDK2” value (CDK2–cyclin A; Compound 9.76563 nM, experiment r13-r23) was 0.01301 and 0.01353. For the same compound, the “Lanthascreen signal, sheet CDK2” value (CDK2–cyclin A; Compound 9.76563 nM, experiment r48-r58) was 0.01491 and 0.01554, the “Lanthascreen signal, sheet CDK2” value (CDK2–cyclin A; Compound 31.5521 nM, experiment r1-r11) was 0.008252 and 0.009758 and the “Lanthascreen signal, sheet CDK2” value (CDK2–cyclin A; Compound 39.0625 nM, experiment r13-r23) was 0.01344 and 0.01357. For the same compound, the “Lanthascreen signal, sheet CDK2” value (CDK2–cyclin A; Compound 39.0625 nM, experiment r48-r58) was 0.01615 and 0.01531, the “Lanthascreen signal, sheet CDK2” value (CDK2–cyclin A; Compound 99.3891 nM, experiment r1-r11) was 0.01148 and 0.009734 and the “Lanthascreen signal, sheet CDK2” value (CDK2–cyclin A; Compound 156.25 nM, experiment r13-r23) was 0.01338 and 0.01316. For the same compound, the “Lanthascreen signal, sheet CDK2” value (CDK2–cyclin A; Compound 156.25 nM, experiment r48-r58) was 0.01495 and 0.01468, the “Lanthascreen signal, sheet CDK2” value (CDK2–cyclin A; Compound 315.521 nM, experiment r1-r11) was 0.01013 and 0.01019 and the “Lanthascreen signal, sheet CDK2” value (CDK2–cyclin A; Compound 625 nM, experiment r13-r23) was 0.01286 and 0.01329. The “Lanthascreen signal, sheet CDK2” value (CDK2–cyclin A; Compound 625 nM, experiment r48-r58) was 0.01515 and 0.01544, the “Lanthascreen signal, sheet CDK2” value (CDK2–cyclin A; Compound 2500 nM, experiment r13-r23) was 0.01297 and 0.01246 and the “Lanthascreen signal, sheet CDK2” value (CDK2–cyclin A; Compound 2500 nM, experiment r48-r58) was 0.0142 and 0.01439. For the same compound, the “Lanthascreen signal, sheet CDK2” value (CDK2–cyclin A; Compound 3155.21 nM, experiment r1-r11) was 0.01019 and 0.009543, the “Lanthascreen signal, sheet CDK2” value (CDK2–cyclin A; Compound 10000 nM, experiment r13-r23) was 0.01011 and 0.01128 and the “Lanthascreen signal, sheet CDK2” value (CDK2–cyclin A; Compound 10000 nM, experiment r48-r58) was 0.01389 and 0.01345. The “Lanthascreen signal, sheet CDK2” value (CDK2–cyclin A; Compound 10002 nM, experiment r1-r11) was 0.009534 and 0.01103, the IC50 (CDK2–cyclin A; Lanthascreen, average, Extended Data Fig. 8, read-out: CDK2 IC50) was > 10000 nM and the IC50 (CDK2–cyclin A; Supplementary Table 2, read-out: Lanthascreen IC50 [nM] CDK2) was > 10000 nM.
